We go through 20 molecules from ChEMBL document CHEMBL4368932 (Bioorg Med Chem, 2019).

Each structure is given as a SMILES string.

Series [1] deals with Phosphatidylinositol 4,5-bisphosphate 3-kinase catalytic subunit alpha isoform (Homo sapiens, UniProt P42336). In words: Inhibition of human PI3Kalpha using phosphatidyl inositol as substrate after 3 hrs by Kinase-Glo Plus reagent-based luminescence assay.
Another series relates to B-cell. Description: Antiproliferative activity against anti-IgM antibody-stimulated BALB/c mouse B cells after 2 days by Alamar Blue reagent-based assay. As to conditions: 48 h.
Series [2] concerns the target T1, Phosphatidylinositol 4,5-bisphosphate 3-kinase catalytic subunit delta isoform (Homo sapiens, UniProt O00329).
T1 sequence (O00329 whole entry): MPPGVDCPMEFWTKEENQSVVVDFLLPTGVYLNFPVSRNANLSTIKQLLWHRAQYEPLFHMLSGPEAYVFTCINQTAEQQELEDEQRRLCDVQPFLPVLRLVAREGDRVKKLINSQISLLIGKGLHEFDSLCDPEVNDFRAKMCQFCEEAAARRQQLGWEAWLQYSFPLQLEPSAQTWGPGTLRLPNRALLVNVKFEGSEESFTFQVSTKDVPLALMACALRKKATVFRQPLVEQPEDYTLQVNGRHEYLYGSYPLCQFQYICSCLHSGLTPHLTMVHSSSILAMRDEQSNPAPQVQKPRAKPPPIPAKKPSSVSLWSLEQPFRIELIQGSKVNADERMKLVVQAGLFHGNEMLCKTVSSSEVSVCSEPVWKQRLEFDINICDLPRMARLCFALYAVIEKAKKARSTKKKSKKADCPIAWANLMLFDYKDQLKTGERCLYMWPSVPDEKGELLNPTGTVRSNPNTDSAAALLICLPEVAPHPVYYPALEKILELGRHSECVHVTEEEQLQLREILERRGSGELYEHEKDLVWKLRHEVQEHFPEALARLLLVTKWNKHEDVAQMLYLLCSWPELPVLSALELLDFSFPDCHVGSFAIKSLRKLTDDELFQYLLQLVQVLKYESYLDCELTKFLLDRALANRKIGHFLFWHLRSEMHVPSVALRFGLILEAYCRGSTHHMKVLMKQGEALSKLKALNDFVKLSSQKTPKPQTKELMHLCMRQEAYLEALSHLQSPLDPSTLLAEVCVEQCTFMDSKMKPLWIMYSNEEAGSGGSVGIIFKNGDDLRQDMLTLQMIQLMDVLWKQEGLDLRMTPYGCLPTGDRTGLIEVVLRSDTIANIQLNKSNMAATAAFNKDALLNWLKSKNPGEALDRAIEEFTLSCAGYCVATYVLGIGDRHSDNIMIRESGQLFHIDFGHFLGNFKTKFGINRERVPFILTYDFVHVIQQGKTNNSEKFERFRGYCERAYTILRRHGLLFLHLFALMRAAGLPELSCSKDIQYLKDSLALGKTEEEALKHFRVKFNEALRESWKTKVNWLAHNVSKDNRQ
Description: Inhibition of recombinant human PI3Kdelta using PIP2 as substrate after 35 to 40 mins by HTRF assay.

Series [3] deals with Phosphatidylinositol 4,5-bisphosphate 3-kinase catalytic subunit beta isoform (Homo sapiens, UniProt P42338). Description: Inhibition of recombinant human PI3Kbeta using PIP2 as substrate after 35 to 40 mins by HTRF assay. In general terms: Time-resolved FRET reads energy transfer from a long-lived donor to a nearby acceptor.
Chain of Phosphatidylinositol 4,5-bisphosphate 3-kinase catalytic subunit beta isoform (P42338 whole entry, canonical isoform): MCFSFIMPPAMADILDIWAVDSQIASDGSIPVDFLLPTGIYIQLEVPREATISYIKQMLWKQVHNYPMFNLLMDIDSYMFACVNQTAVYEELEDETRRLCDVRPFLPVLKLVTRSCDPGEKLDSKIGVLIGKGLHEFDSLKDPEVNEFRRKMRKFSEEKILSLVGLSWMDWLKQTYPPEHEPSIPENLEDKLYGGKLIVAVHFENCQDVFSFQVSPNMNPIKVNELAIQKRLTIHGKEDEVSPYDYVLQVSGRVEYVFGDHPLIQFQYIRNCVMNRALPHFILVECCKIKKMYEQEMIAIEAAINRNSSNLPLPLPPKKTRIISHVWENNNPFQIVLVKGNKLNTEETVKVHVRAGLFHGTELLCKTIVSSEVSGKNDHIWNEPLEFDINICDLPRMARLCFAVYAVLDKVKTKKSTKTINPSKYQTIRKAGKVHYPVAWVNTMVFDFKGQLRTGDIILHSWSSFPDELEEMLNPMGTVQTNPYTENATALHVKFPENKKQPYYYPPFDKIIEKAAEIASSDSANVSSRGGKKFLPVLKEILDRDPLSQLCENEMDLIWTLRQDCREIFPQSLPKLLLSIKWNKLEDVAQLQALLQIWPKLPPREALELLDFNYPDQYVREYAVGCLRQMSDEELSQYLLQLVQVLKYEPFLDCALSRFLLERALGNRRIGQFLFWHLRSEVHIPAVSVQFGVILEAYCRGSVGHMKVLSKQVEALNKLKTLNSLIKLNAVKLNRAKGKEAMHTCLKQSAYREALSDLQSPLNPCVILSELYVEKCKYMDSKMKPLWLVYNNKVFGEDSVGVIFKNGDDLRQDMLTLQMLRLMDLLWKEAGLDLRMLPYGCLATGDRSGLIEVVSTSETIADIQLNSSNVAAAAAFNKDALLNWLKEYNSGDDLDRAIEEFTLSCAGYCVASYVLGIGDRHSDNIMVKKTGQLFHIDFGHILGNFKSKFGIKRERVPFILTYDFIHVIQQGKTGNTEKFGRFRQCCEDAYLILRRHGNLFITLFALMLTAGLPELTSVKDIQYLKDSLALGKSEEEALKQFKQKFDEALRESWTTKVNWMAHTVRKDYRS
Series [4] concerns the target Phosphatidylinositol 4,5-bisphosphate 3-kinase catalytic subunit gamma isoform (Homo sapiens, UniProt P48736). Description: Inhibition of recombinant human PI3Kgamma using PIP2 as substrate after 35 to 40 mins by HTRF assay.
A short description of series [5]: Inhibition of PI3K in rat Rat-1 cells assessed as decrease in AKT 1/2 phosphorylation at ser473 residues after 1 hr by AlphaScreen assay. It counts as cell-based.
Series [6] is described as follows: Half life in BALB/c mouse at 1 mg/kg, iv or 3 mg/kg, po by LC-MS/MS analysis. It counts as ADME, organism-based. Particulars: in vivo.
Series [7] can be described thus: Intrinsic clearance in CD1 mouse liver microsomes at 0.2 uM up to 45 mins in presence of NADPH by LC-MS/MS analysis. It counts as ADME, Microsome. Particulars: read-out: CLH. (Microsomes from liver hold many membrane-bound enzymes, among them those of drug oxidation.)
The target in series [8] is T2, Phosphatidylinositol 4,5-bisphosphate 3-kinase catalytic subunit delta isoform (Homo sapiens) (UniProt O00329).
T2 sequence (whole entry): T1 sequence (O00329 whole entry)
Description: Inhibition of recombinant human PI3Kdelta at 0.1 uM using PIP2 as substrate after 35 to 40 mins by HTRF assay relative to control.

For orientation: IC50 means the midpoint of a concentration-inhibition curve. A word on the half-life: it is the time in which the quantity being followed falls by half. Broadly, the inhibition is how much of the control response was suppressed.

Chain of Phosphatidylinositol 4,5-bisphosphate 3-kinase catalytic subunit gamma isoform (P48736 whole entry, canonical isoform): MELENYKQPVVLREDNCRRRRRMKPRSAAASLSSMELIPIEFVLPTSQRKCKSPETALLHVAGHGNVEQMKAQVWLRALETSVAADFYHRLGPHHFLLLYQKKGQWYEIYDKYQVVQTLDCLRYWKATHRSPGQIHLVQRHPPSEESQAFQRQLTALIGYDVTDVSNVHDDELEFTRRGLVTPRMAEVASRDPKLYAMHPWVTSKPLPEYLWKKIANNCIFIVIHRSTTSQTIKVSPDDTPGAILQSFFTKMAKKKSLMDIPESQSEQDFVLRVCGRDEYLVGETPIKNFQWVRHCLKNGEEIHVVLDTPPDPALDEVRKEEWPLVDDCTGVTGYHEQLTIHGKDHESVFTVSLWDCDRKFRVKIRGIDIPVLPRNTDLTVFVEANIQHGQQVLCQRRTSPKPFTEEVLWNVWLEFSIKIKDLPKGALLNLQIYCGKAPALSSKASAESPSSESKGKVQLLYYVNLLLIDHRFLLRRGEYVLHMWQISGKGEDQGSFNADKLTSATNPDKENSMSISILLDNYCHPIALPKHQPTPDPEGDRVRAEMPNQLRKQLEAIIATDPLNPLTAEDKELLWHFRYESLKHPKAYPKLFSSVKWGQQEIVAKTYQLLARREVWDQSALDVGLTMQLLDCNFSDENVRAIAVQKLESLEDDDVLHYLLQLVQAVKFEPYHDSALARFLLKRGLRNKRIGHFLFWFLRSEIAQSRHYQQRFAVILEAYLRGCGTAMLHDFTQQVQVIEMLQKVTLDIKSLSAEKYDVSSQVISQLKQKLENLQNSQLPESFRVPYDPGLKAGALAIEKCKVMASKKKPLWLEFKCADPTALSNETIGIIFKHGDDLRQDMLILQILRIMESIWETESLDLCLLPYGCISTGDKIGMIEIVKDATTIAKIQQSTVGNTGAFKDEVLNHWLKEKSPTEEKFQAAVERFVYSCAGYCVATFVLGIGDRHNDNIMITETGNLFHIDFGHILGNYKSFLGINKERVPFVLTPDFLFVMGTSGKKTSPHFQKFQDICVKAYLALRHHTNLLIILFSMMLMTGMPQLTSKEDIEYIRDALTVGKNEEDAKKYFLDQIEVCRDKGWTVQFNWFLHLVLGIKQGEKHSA
Chain of Phosphatidylinositol 4,5-bisphosphate 3-kinase catalytic subunit alpha isoform (P42336 whole entry, canonical isoform): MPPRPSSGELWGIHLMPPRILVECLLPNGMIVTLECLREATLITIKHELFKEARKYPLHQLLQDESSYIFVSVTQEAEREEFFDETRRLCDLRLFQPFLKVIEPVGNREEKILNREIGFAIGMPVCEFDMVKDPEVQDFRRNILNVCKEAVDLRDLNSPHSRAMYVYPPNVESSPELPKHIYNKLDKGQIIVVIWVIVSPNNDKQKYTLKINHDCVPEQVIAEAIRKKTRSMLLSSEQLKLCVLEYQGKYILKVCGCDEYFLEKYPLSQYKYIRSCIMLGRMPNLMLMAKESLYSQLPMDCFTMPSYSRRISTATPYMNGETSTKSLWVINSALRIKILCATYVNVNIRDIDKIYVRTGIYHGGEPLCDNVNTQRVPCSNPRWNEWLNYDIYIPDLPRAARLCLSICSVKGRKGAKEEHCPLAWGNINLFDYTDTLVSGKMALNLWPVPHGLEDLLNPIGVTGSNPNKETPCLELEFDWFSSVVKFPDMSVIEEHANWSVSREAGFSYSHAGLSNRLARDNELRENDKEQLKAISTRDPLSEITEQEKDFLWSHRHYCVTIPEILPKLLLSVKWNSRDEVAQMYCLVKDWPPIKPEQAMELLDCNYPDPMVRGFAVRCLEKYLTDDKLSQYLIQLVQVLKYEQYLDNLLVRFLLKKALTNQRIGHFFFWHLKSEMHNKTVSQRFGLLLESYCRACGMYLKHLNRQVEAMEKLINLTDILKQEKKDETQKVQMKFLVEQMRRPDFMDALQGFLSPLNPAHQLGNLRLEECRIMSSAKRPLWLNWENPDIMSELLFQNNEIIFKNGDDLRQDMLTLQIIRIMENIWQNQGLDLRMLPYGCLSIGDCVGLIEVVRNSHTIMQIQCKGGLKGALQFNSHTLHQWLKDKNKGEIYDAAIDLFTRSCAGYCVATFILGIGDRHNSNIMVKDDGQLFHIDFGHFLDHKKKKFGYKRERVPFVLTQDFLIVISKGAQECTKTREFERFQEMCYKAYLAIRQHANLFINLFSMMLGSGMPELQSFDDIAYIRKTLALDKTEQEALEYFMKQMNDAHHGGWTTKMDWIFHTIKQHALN

Take `COc1ncc(N2CCc3ncnc(-c4ccnc(N[C@H]5CC[C@H](O)CC5)c4)c3C2)cc1C`: the IC50 is 7300 nM in series [1], 24 nM in the series with B-cell and 27 nM in series [2].

Take `CCOC(=O)c1cccc(Nc2ncnc3c2CN(c2cnc(OC)c(C)c2)CC3)c1`: the IC50 in series [2] was 120 nM.

Turning to `COc1ncc(N2CCc3ncnc(-c4ccnc(NC5CCOCC5)c4)c3C2)cc1C`, the IC50 in series [1] is 5800 nM; in [3], 5400 nM; in [4] it was above 10000 nM; in the series on B-cell, 7.1 nM; in series [2], 11 nM.

For `COc1ncc(N2CCc3ncnc(-c4ccnc(NC5CCNCC5)c4)c3C2)cc1C`, the IC50 in series [1] was above 10000 nM; in [3], above 10000 nM; in series [4], above 10000 nM; with B-cell it was 24 nM; in series [2], 25 nM.

Take `COc1ncc(N2CCc3ncnc(Nc4cccc(C(=O)NC5CCOCC5)c4)c3C2)cc1C`: in [2], the IC50 stood at 49 nM.

Take `COc1ncc(N2CCc3ncnc(Nc4cccc(C(=O)N5CCOCC5)c4)c3C2)cc1C`: the IC50 in series [2] is 47 nM.

As for `COc1ncc(N2CCc3ncnc(-c4ccnc(NCC5CCOCC5)c4)c3C2)cc1C`, the IC50 in [1] was determined as 7500 nM; in [3], 8900 nM; in the series with B-cell it was 17 nM; in series [2] it was 28 nM.

Take `COCCNc1cc(-c2ncnc3c2CN(c2cnc(OC)c(C)c2)CC3)ccn1`: in series [2], the IC50 worked out at 39 nM.

For `COc1ncc(N2CCc3ncnc(-c4ccnc(OC5CCN(C)CC5)c4)c3C2)cc1C`, the half-maximal inhibitory concentration (IC50) in [2] was 45 nM.

`COc1ncc(N2CCc3ncnc(-c4cnn(CC5CCOCC5)c4)c3C2)cc1C`: the IC50 in [1] is 4900 nM; in series [2] it was 110 nM.

For `COc1ncc(N2CCc3ncnc(O[C@H]4CCN(C(=O)C5CCOCC5)C4)c3C2)cc1C`, the IC50 in the series on B-cell turned out to be 24 nM; in series [5], 153 nM. The half-life in series [6] was 40.2 min.

For the molecule `COc1ncc(N2CCc3ncnc(-c4ccnc(NC5CCN(S(C)(=O)=O)CC5)c4)c3C2)cc1C`, the IC50 was 1400 nM in series [1], 12 nM with B-cell and 9.6 nM in series [2]. Also, the CLint scaled at 0.2 µM in series [7] is above 1000 mL/min/kg.

For the molecule `COc1ncc(N2CCc3ncnc(-c4ccc(NC5CCOCC5)nc4)c3C2)cc1C`, in series [2], the half-maximal inhibitory concentration (IC50) was 150 nM.

In the case of `COc1ncc(N2CCc3ncnc(-c4cnn(C5CCOCC5)c4)c3C2)cc1C`, the IC50 is 2600 nM in series [1] and 180 nM in [2].

For `COCC(=O)N1CCC(Nc2cc(-c3ncnc4c3CN(c3cnc(OC)c(C)c3)CC4)ccn2)CC1`, the IC50 in series [1] was 9800 nM; in series [3] it was above 10000 nM; in series [4], above 10000 nM; with B-cell, 7.9 nM; in series [2], 9.2 nM. Further, in [7], the CLint scaled at 0.2 µM is 580 mL/min/kg.

As for `CCN1CCC(Nc2cc(-c3ncnc4c3CN(c3cnc(OC)c(C)c3)CC4)ccn2)CC1`, the IC50 was 4600 nM in [1]; above 10000 nM in [3]; above 10000 nM in series [4]; 4.8 nM in the series with B-cell; 8.5 nM in [2]. Moreover, in series [7], the CLint scaled at 0.2 µM worked out at 160 mL/min/kg.

Regarding `COc1ncc(N2CCc3ncnc(Nc4ccccc4)c3C2)cc1C`, in series [8], the inhibition worked out at 14%.

In the case of `COc1ncc(N2CCc3ncnc(-c4ccnc(NCc5ccccc5)c4)c3C2)cc1C`, in series [2], the IC50 worked out at 87 nM.

Consider `COc1ncc(N2CCc3ncnc(Nc4cccc(C)c4)c3C2)cc1C`, for which the IC50 in series [2] is 220 nM.

For the molecule `COc1ncc(N2CCc3ncnc(-c4ccc(NCC5CCOCC5)nc4)c3C2)cc1C`, the values for the IC50 in series [1] and in [2] were 6100 nM and 42 nM, respectively.
